Read-outs that look alike come from different tables or passages of the source.
How the values were obtained:
[1] = test system: BaF3 cells harboring FLT3-ITD; test: CellTiter-Glo cell viability; type: cell-based, murine; conditions: Mus musculus, 72 hours
Method: After this time cell viability was determined using CTG and EC50 values determined.
EC50 values were calculated using equation 1 (as described above).
BaF3 cells require the supplementation of IL-3 to activate the IL-3 receptor for growth. However, in BaF3 cells transfected with FLT3-ITD, cells no longer require IL3 as survival is solely driven by oncogenic FLT3 signaling.

[2] = test system: MOLM-13 FLT3-ITD AML cell line; test: Systemic survival xenograft study, MPC-0767 with 5′azacitidine; conditions: single agents: MPC-0767 75 mg/kg p.o.; 5′azacitidine 2 mg/kg QD×4 i.p.; vs vehicle
Method: A systemic survival xenograft study was performed using the MOLM-13 FLT3-ITD harboring AML cell line.
Before tumor cell inoculation, NOD/SCID mice were pre-treated for 2 days with a daily intraperitoneal injection of 100 mg/kg cyclophosphamide to facilitate engraftment of the human MOLM-13 tumor cells. After the injection of cyclophosphamide, the animals were allowed to recover for 24 hours prior to inoculation with human MOLM-13 tumor cells. Each mouse was then inoculated with 1×10^7 MOLM-13 cells in 100 μL PBS via intravenous tail vein injection. Mice were next randomized into 4 groups of 6 mice each. […] Viability and body weight loss were monitored daily.

MOLM-14 cells (FLT3-ITD) = test: CellTiter-Glo cell viability (single agent and combination); type: cell-based; conditions: 72 hours; for IC50: Homo sapiens, MOLM-14, 72 h, read-out: EC50 (cell viability)
Method: HS-5 is a human marrow stromal cell line that secretes various growth factors sufficient to support hematopoietic progenitor growth (Roecklein et al., Blood, 1995) which thus mimics stromal conditions.
Three cell lines which harbor FLT3-ITD were used for the drug combination studies (MV-4-11, MOLM-13, and MOLM-14).
Cells were treated with the drugs (single agent or combination) for 72 hours. Drug combination activity was determined by first measuring cell viability with CellTiter-Glo®, followed by the calculation of the EC50 corresponding to single agent activity, using the R DRC package (R Core Team, 2017). The combination index (CI) values were computed using the Chou-Talalay method (Chou T, Cancer Research., 2010 70(2): 440-6.), based on the viability of each drug alone and in combination, across all concentrations tested. In brief, CI was defined as: […]
Loss of function mutations of KDM6A are observed in FLT3-ITD AML (Garg et al., 2015 Blood 126 (22):2491-501). […] To therapeutically exploit this finding, we hypothesized that inhibiting EZH2, the histone H3K27 methyltransferase that functionally opposes KDM6A, would enhance sensitivity to MPC-0767. To test this hypothesis, a FLT3-ITD cell line (MV-4-11) was used and treated with either of the two clinical stage EZH2 inhibitors, EPZ-6438 and CPI-1205, at 8 different concentrations for 4 days. Following this time, cells were counted, reseeded and treated with 8 concentrations of EZH2 inhibitor alone, 8 concentrations of MPC-0767 alone, or the combination of the two (64 total combinations).

[3] = test system: phospho-ERK (pERK) in MOLM-13 cells; test: Phospho-ERK level; type: cell-based, human; conditions: MPC-0767 800 nM, ATO 625 nM or combination, 24 hours
Source text: We next explored whether the synergistic activity of MPC-0767 and ATO was due to a more complete abrogation of FLT3-ITD oncogenic signaling. […] After this time cells were harvested for the assessment of cell surface FLT3 expression by flow cytometry. To additionally measure the effects of abrogating FLT3, we assessed phospho-ERK (pERK) and phospho-S6 (pS6), as these are two known downstream effectors.

[4] = cited from earlier work
[5] = test system: primary AML samples harboring FLT3-ITD; test: Annexin V / 7AAD cell death by flow cytometry; type: cell-based, human; conditions: increasing concentrations, 72 hours, 4 primary samples
Method: To test whether the anti-leukemic effect of MPC-0767 is due to induction of cell death, 4 primary AML samples (all harboring FLT3-ITD) were treated with increasing concentrations of MPC-0767 for 72 hours. Samples were then processed for quantification by flow cytometry of cells positive for annexin V and 7AAD. These markers allow the detection of cell death, specifically dead (7AAD only positive), early apoptotic (annexin V only positive) or late stage apoptotic/necrotic (7AAD and annexin V positive) populations were combined to give a readout of cell death.

PD-L1 on THP-1 cells = test: PD-L1 expression on THP-1 cells by flow cytometry; type: cell-based; conditions: IFNγ overnight with MPC-0767 1 μM or 2 uM
Source text: FIG. 29A-D: MPC-0767 repression of PD-L1 expression increases T cell activation. Bar graphs show activation of Jurkat reporter cells with anti-CD3 (A) and PD-L1-dependent inhibition of T cell activation after IFNγ treatment (B). Bars in A&B represent the mean +/− SD of triplicate wells and are representative of three independent experiments. […] Bars in C&D represent the mean +/− SD of three independent experiments.
We next determined whether MPC-0767 reduction of PD-L1 could increase T cell stimulation similar to anti-PD-L1 blocking antibodies. THP-1 cells were treated overnight with IFNγ in the presence or absence of MPC-0767 (1 μM or 2 uM). THP-1 cells were washed and a portion saved for flow cytometry analysis of PD-L1 expression. The remaining cells were incubated with Jurkat reporter cells and anti-CD3 (10 ng/ml) for 6 hours.

[6] = test system: mutant EGFR on the cell surface of PC-9 cells; test: Cell surface EGFR by flow cytometry; type: cell-based; conditions: PC-9, 1 μM, 24 hours
Method: (§1) FIG. 3A-B: MPC-0767 reduces cell surface EGFR expression in H1975 cells (A) and PC-9 cells (B). Cells were treated with MPC-0767 (1 μM) for 24 hours before being harvested and cell expression of EGFR determined by flow cytometry.
(§2) These findings confirm that MPC-0767 targets and degrades EGFR in lung cancer cell lines.

[7] = test system: mutant EGFR on the cell surface of H1975 cells; test: Cell surface EGFR by flow cytometry; type: cell-based; conditions: H1975, 1 μM, 24 hours
Method: as §1, §2

## C[C@H](N)C(=O)O[C@@H](C)C(=O)N1CCC(CCn2c(Sc3cc4c(cc3Br)OCO4)nc3c(N)ncnc32)CC1 [MPC-0767]
[1]
  EC50: 497 nM
[2]
  increase in median survival: 5.5 days
MOLM-14 cells (FLT3-ITD); MOLM-14, non-stromal media
  IC50: 423 nM
MOLM-14 cells (FLT3-ITD); MOLM-14, stromal media (HS-5 conditioned)
  IC50: 627 nM
MOLM-14 cells (FLT3-ITD); MOLM-14, MPC-0767 1 μM
  viability of KDM6A sgRNA cells vs non-targeting sgRNA: conferred resistance to MPC-0767
[3]
  pERK level: mildly reduced
[4]
  aqueous solubility: improved aqueous solubility
[5]
  cell death (annexin V and/or 7AAD positive): dose-dependent increase in cell death
PD-L1 on THP-1 cells
  PD-L1 expression on THP-1 cells: dose-dependently reduced PD-L1 expression
[6]
  mutant EGFR on the cell surface: decreased
[7]
  mutant EGFR on the cell surface: decreased

From US20200253979A1, “THERAPEUTIC METHODS RELATING TO HSP90 INHIBITORS” (AI Therapeutics, Inc., priority 2017, published 2020)
